Results as given in patent US20160208330A1, “IDENTIFYING MARKERS OF CALORIC RESTRICTION AND CALORIC RESTRICTION MIMETICS” (NSE Products, Inc., priority 2011, published 2016).

Test system: genes listed in Table 6 (CR marker panel), white adipose tissue
Assay: Testing ingredients for mimicry of caloric restriction: feeding study, RT-qPCR of the Table 6 gene panel in white adipose tissue, fold change as percentage of the fold change in the CR group
Type: in vivo, C57BL/6J mice
Parameters: key to Avg. CRMI: points per gene: 11-20% mimicry = 1, 21-30% = 2...; opposite effect negative
Settings: for Avg. CRMI: CR Mimetic Index, points per gene from mimicry score plus five points for significance; for Avg. mimicry: average over significantly changed genes; for CMII: mimetic index = average mimicry (fraction of CR) x number of significantly changed genes
Description: C57BL/6J mice were purchased from Jackson Laboratories at 6 weeks of age and maintained as described previously in Barger J L, et al. (2008) A Low Dose of Dietary Resveratrol Partially Mimics Caloric Restriction and Retards Aging Parameters in Mice. PLoS ONE 3(6): e2264 (http://dx.doi.org/10.1371/journal.pone.0002264). Briefly, mice were individually housed in shoebox cages and provided with 24 grams (˜84 kcal) of AIN-93M diet per week (7 grams on Monday and Wednesday and 10 grams on Friday). Starting at 8 weeks of age and continuing until 22 weeks of age, mice were either a) maintained on the AIN-93M diet (control group), b) fed a Calorie Restricted (CR) diet providing 63 kcal/week of a modified AIN93M from 8-16 weeks of age and then further reduced to a diet providing 49 kcal/week of a modified AIN93M from 16-22 weeks of age; or c) were assigned to an AIN93M diet supplemented with one of the following test ingredients: 1) bezafibrate at a dose of 5,000 mg/kg diet; 2) metformin at a dose of 1,909 mg/kg diet; 3) L-carnitine at a dose of 1,800 mg/kg diet; 4) blood orange extract at a dose of 18 mg/kg of body weight; 5) purple corn extract at a dose of 22 mg/kg of body weight; 6) resveratrol at a dose of 30 mg/kg of body weight; and 7) quercetin at a dose of 17.6 mg/kg of body weight. At 22 weeks of age, tissues were collected from the mice, flash-frozen in liquid nitrogen and stored at −80° C. for later analysis.
In order to screen the ingredients for their ability to mimic CR, quantitative real-time PCR (RT-qPCR) analysis was performed on RNA isolated from white adipose tissue from all groups of mice. Experimental methods and data analysis for RT-qPCR experiments have been published previously in Barger, J L et al., (2008) Short-term consumption of a resveratrol-containing nutraceutical mixture mimics gene expression of long-term caloric restriction in mouse heart, Exp. Gerontology 43(9):859 (http://dx.doi.org/10.1016/j.exger.2008.06.013). Briefly, the magnitude of change in gene expression was determined for each of the genes listed in Table 6 for the CR and treatment groups compared to the control animals. Two-tailed t-tests (assuming equal variance) were used to determine if the change in expression for individual genes was statistically significant. The magnitude of the change in expression (“fold change”) values were log2-adjusted to fit normality assumptions for statistical analyses.
CR mimicry was expressed as the fold change observed in each gene for the test group as a percentage of the fold change observed for that gene in the CR group.
The ingredients tested were based on their mimetic effect across the gene panel.
Another ranking approach was used to reflect effects across all genes. A CR Mimetic Index (CRMI) was calculated per gene for each ingredient by assigning each a number of points based on its mimicry score for each gene. Positive points were given for positive mimicry values (11 to 20%=1 point, 21 to 30%=2 points, 31 to 40%=3 points, and so on). Negative mimicry values (i.e. where the gene expression effect was opposite that observed for CR) received corresponding negative scores (i.e. −11 to −20%=−1 point, −21 to −30%=−2 points, −31 to −40%=[…], and so on). Five points were added for statistical significance of a mimicry value.
In the experimental protocol of Example 2, bezafibrate at 5,000 mg/kg diet was also compared to lower doses (100 and 500 mg/kg).
Mimetic indices were calculated for the 500 mg/kg and 100 mg/kg doses as in Example 2.

[1] = fold change as percentage of CR fold change, white adipose tissue
[2] = white adipose tissue, RT-qPCR, C57BL/6J mice fed from 8 to 22 weeks of age, ingredient doses, only significantly changed genes shown
[3] = white adipose tissue, Table 6 gene panel, diet supplemented from 8 to 22 weeks of age, doses (bezafibrate 5,000 mg/kg diet)
[4] = 100 mg/kg diet, white adipose tissue
[5] = 500 mg/kg diet, white adipose tissue
[6] = 5000 mg/kg diet, white adipose tissue

Oc1ccc(C=Cc2cc(O)cc(O)c2)cc1 [Resveratrol, resveratrol]
Avg. CRMI: 35
Avg. mimicry [1]: 34%
CMII: 1.38
CR mimicry, Acaca (fold change as percentage of the fold change in the CR group) [2]: 8%
CR mimicry, Gpd2 (fold change as percentage of the fold change in the CR group) [2]: 10%
CR mimicry, Nampt (fold change as percentage of the fold change in the CR group) [2]: 65%
CR mimicry, Serpine1 (fold change as percentage of the fold change in the CR group) [2]: 55%
No. of genes significantly changed [3]: 4

C[N+](C)(C)C[C@H](O)CC(=O)[O-] [L-carnitine]
Avg. CRMI: 55
Avg. mimicry [1]: 31%
CMII: 2.2
CR mimicry, Acaca (fold change as percentage of the fold change in the CR group) [2]: 5%
CR mimicry, Gpd2 (fold change as percentage of the fold change in the CR group) [2]: 15%
CR mimicry, Nampt (fold change as percentage of the fold change in the CR group) [2]: 84%
CR mimicry, Ndufs4 (fold change as percentage of the fold change in the CR group) [2]: 40%
CR mimicry, Parm1 (fold change as percentage of the fold change in the CR group) [2]: 3%
CR mimicry, Serpine1 (fold change as percentage of the fold change in the CR group) [2]: 52%
CR mimicry, Slc2a4 (fold change as percentage of the fold change in the CR group) [2]: 16%
No. of genes significantly changed [3]: 7

O=c1c(O)c(-c2ccc(O)c(O)c2)oc2cc(O)cc(O)c12 [Quercetin, quercetin]
Avg. CRMI: 17
Avg. mimicry [1]: 20%
CMII: 0.4
ranking of CR mimicry among tested ingredients (ranking by mimetic index (CMII), Table 8): lowest degree of CR mimicry
CR mimicry, Gpd2 (fold change as percentage of the fold change in the CR group) [2]: 5%
CR mimicry, Slc2a4 (fold change as percentage of the fold change in the CR group) [2]: 35%
No. of genes significantly changed [3]: 2

CC(C)(Oc1ccc(CCNC(=O)c2ccc(Cl)cc2)cc1)C(=O)O [Bezafibrate, bezafibrate]
CR mimicry Acaca [4]: 20%
CR mimicry Cd68 [4]: 58%
CR mimicry Gpd2 [4]: 23%
CR mimicry Ifi27I2a [4]: 39%
CR mimicry Acaca [5]: 23%
CR mimicry Acss2 [5]: 17%
CR mimicry Gpd2 [5]: 31%
CR mimicry Me1 [5]: 18%
CR mimicry Nampt [5]: 87%
CR mimicry Parm1 [5]: 19%
CR mimicry Slc2a4 [5]: 69%
CR mimicry Acaca [6]: 59%
CR mimicry Acss2 [6]: 21%
CR mimicry Cd68 [6]: 58%
CR mimicry Gpd2 [6]: 93%
CR mimicry Ifi27I2a [6]: 75%
CR mimicry Me1 [6]: 24%
CR mimicry Nampt [6]: 233%
CR mimicry Ndufs4 [6]: 108%
CR mimicry Parm1 [6]: 47%
CR mimicry Slc2a4 [6]: 113%
Avg. CRMI: 128
Avg. mimicry [1]: 83%
Avg. CRMI (CR Mimetic Index, points per gene) (bezafibrate 100 mg/kg diet): 28
CMII (average mimicry as fraction of CR x number of significantly changed genes) (bezafibrate 100 mg/kg diet): 1.4
Avg. mimicry (bezafibrate 100 mg/kg diet): 35%
No. of genes significantly changed (bezafibrate 100 mg/kg diet, white adipose tissue gene panel): 4
Avg. CRMI (CR Mimetic Index, points per gene) (bezafibrate 500 mg/kg diet): 68
CMII (average mimicry as fraction of CR x number of significantly changed genes) (bezafibrate 500 mg/kg diet): 2.6
Avg. mimicry (bezafibrate 500 mg/kg diet): 38%
No. of genes significantly changed (bezafibrate 500 mg/kg diet, white adipose tissue gene panel): 7
Avg. CRMI (CR Mimetic Index, points per gene) (bezafibrate 5000 mg/kg diet): 128
CMII (average mimicry as fraction of CR x number of significantly changed genes) (bezafibrate 5000 mg/kg diet): 8.3
Avg. mimicry (bezafibrate 5000 mg/kg diet): 83%
No. of genes significantly changed (bezafibrate 5000 mg/kg diet, white adipose tissue gene panel): 10
CMII: 8.3
CR mimicry, Acaca (fold change as percentage of the fold change in the CR group) [2]: 59%
CR mimicry, Acss2 (fold change as percentage of the fold change in the CR group) [2]: 21%
CR mimicry, Cd68 (fold change as percentage of the fold change in the CR group) [2]: 58%
CR mimicry, Gpd2 (fold change as percentage of the fold change in the CR group) [2]: 93%
CR mimicry, Ifi27I2a (fold change as percentage of the fold change in the CR group) [2]: 75%
CR mimicry, Me1 (fold change as percentage of the fold change in the CR group) [2]: 24%
CR mimicry, Nampt (fold change as percentage of the fold change in the CR group) [2]: 233%
CR mimicry, Ndufs4 (fold change as percentage of the fold change in the CR group) [2]: 108%
CR mimicry, Parm1 (fold change as percentage of the fold change in the CR group) [2]: 47%
CR mimicry, Slc2a4 (fold change as percentage of the fold change in the CR group) [2]: 113%
No. of genes significantly changed [3]: 10

CN(C)C(=N)N=C(N)N [Metformin, metformin]
Avg. CRMI: 31
Avg. mimicry [1]: 16%
CMII: 0.6
CR mimicry, Acaca (fold change as percentage of the fold change in the CR group) [2]: 17%
CR mimicry, Gpd2 (fold change as percentage of the fold change in the CR group) [2]: 27%
CR mimicry, Me1 (fold change as percentage of the fold change in the CR group) [2]: 11%
CR mimicry, Parm1 (fold change as percentage of the fold change in the CR group) [2]: 10%
No. of genes significantly changed [3]: 4
